Measured values: article PMC9376946, “Peptide-RNA Coacervates as a Cradle for the Evolution of Folded Domains” (Journal of the American Chemical Society, 2022)

Columns and labels:
polyU [1] = experiment: W-band echo intensity and echo decay of PA-12 with polyU; type: binding
Experimental: For pulse EPR measurements, 5–6 μL of peptide in D2O with 20% glycerol-d8 was introduced into a quartz capillary of 0.9 mm i.d. and 1.1 mm o.d. and sealed with Critoseal at one end. The samples with polyU (and thus, the potential for coacervates) were flash-frozen in liquid nitrogen after incubating at room temperature for 15–20 min. Samples without polyU were directly inserted into the spectrometer at 25 K.
Pulse EPR measurements were carried out at the W band (94.9 GHz) on a home-built spectrometer at 25 K.[22]−[24] Echo intensities were measured with a Hahn echo sequence (π/2νobs – τ – πνobs – τ – echo) using π/2 and π pulses of 20–25 ns and 40–50 ns, respectively, and τ = 500 ns. Echo decays were measured under the same conditions with an initial τ value of 500 ns. DEER measurements were recorded using the four-pulse DEER sequence (π/2νobs – τ1 – πνobs – (τ1 + t) – πνpump – (τ2-t) – πνobs – τ2 – echo)[25],[26] with a chirp pump pulse[23] using eight-step phase cycling and monitoring the echo intensity as a function of increasing t. […] The DEER data were analyzed using the DeerAnalysis 2018[27] program with Tikhonov regularization[28] and also verified with DEERNet.[29] […] The calculated distance distributions were obtained from mtsslSuite[30] using maleimide TEMPO (M-TEMPO) as the ligand, and 200 rotamer conformations were generated using clash treatment set to “loose”. […]

polyU [2] = experiment: Coacervate (droplet) formation with polyU, optical microscopy; type: physicochemical; details: for coacervate formation with polyU: 150 μM, 50 mM MES pH 5.6
Experimental: Optical microscopy images of phase-separated samples were taken at the de Picciotto Cancer Cell Observatory Life Sciences Core Facilities (Weizmann Institute of Science) using a 100× objective (oil immersion) on a Leica DMI8 microscope with differential interface contrast. We used 1–2 μL of the sample to make a small drop in an imaging chamber produced by attaching a coverslip to a clean glass slide using a thin strip of double-sided tape (AJ Sign World). Images were processed using the software package Fiji (NIH).
Lyophilized, spin-labeled peptides were dissolved in Milli-Q water and centrifuged at 4000 rpm for 10 min to remove insoluble aggregates. The soluble fractions were used to prepare stock solutions of 250–500 μM peptide. Labeled peptide concentrations were determined by comparing the area under the curve of the EPR signal against that of standard solutions of 10–285 μM TEMPO. For the EPR measurements in D2O, 200 μL of the stock solution was lyophilized and re-dissolved in D2O. The concentration of the unlabeled peptide stock solutions was determined using the bicinchoninic acid assay (Thermo Fisher Scientific) and ranged from 0.8 to 1.2 mM peptide. A stock solution of 500 mM MES, pH 5.6 was used to adjust all samples to a final concentration of 50 mM MES, pH 5.6. Aliquots of 10 mg/mL polyuridylic acid (polyU; Sigma Aldrich) were prepared in Milli-Q water and diluted as necessary. For CW-EPR measurements, a quartz capillary of 0.6 mm i.d. and 0.84 mm o.d. was filled with 7–8 μL of the sample and sealed with Critoseal (Fisherbrand, Fisher Scientific) at one end. A single capillary was placed in an X-band EPR tube of 2 mm i.d. and 2.4 mm o.d. for measurements, except for spin concentration below 50 μM, where two capillaries were used.
Each sample was freshly prepared and the time to collect […] CW-EPR data was 30–40 min.

droplet formation with polyU (polyU [2]; 50 μM PA-12 and above, 1 mg/mL polyU): a significant number of droplets | coacervate formation with polyU (polyU [2]; 0.35 or 0.5 mg/mL polyU): only a few tiny droplets were observed | coacervate formation with polyU (polyU [2]; 1 or 2 mg/mL polyU): readily form coacervates
Sequence: RIRRASVEELTCVPGIGPRLARRILERLA [PA-12, Precursor-Arg peptide in which position 12 has been modified with a cysteine and attached to an M-TEMPO spin label]
echo signal remaining (polyU [1]; 150 μM PA-12, 0.5 mg/mL polyU (plateau), relative to no polyU): 8% | fast-decaying echo component (polyU [1]; 1 mg/mL polyU, 80% spin dilution, final PA 150 μM): the fast-decaying component became clearly visible
